Experimental data taken from patent publication US20260224583A1, “COMPOSITIONS USEFUL FOR MODULATING SPLICING” (Skyhawk Therapeutics, Inc., priority 2023, published 2026).

System: ATXN3 transcripts containing exon 4 (E4E5)
Assay: ATXN3 Quantitative Splicing Assay (qPCR, E4E5 primers/probe)
Format: cell-based
Details: Homo sapiens; SK-N-MC cells, 24 h treatment, 30 μM to 0.6 nM; read-out: ATXN3 Potency - Splicing E4E5 IC50
Method: Human neuroblastoma SK-N-MC cells were plated in 384-well plates at 20,000 cells/well. Twenty-four hours after plating, cells were treated with compounds for 24 h at appropriate concentrations ranging from 30 μM to 0.6 nM (0.3% DMSO). Treated cells were lysed in 15 μL of lysis buffer, and cDNA was synthesized using the Fast Advanced Cells-to-Ct kit. Two μL of each cDNA was used in qPCR reactions to confirm the exon 4 skipped transcripts of ATXN3. A second set of primers/probe E4E5 was used to detect the transcripts containing exon 4. The third set of primers/probe E8E9 was used to detect total gene level of ATXN3. The qPCR reactions were prepared in 384-well plates in 10 μL volume, using TaqMan™ Fast Advanced Master Mix with primers and probes shown in the table below. Reactions were run in a Quant Studio 6 qPCR instrument with default settings.
The primers and probes are listed below in Table 3.

Structure (SMILES) | IC50
C[C@H](F)[C@H](N)Cc1cc2c(NCc3ccco3)nc(Cl)nn2c1Br [Compound 1, 6-((2R,3S)-2-amino-3-fluorobutyl)-7-bromo-2-chloro-N-(furan-2-ylmethyl)pyrrolo[2,1-f][1,2,4]triazin-4-amine] | 0.01 to 100 nM
C[C@H](F)[C@H](N)Cc1cc2c(NCc3ccco3)nc(Cl)nn2c1Cl [Compound 2, 6-((2R,3S)-2-amino-3-fluorobutyl)-2,7-dichloro-N-(furan-2-ylmethyl)pyrrolo[2,1-f][1,2,4]triazin-4-amine] | 101 to 500 nM
N[C@@H](CF)Cc1cc2c(NCc3ccco3)nc(Cl)nn2c1Cl [Compound 3, (R)-6-(2-amino-3-fluoropropyl)-2,7-dichloro-N-(furan-2-ylmethyl)pyrrolo[2,1-f][1,2,4]triazin-4-amine] | 0.01 to 100 nM
N[C@@H](CF)Cc1cc2c(NCc3ccco3)nc(Cl)nn2c1Br [Compound 4, (R)-6-(2-amino-3-fluoropropyl)-7-bromo-2-chloro-N-(furan-2-ylmethyl)pyrrolo[2,1-f][1,2,4]triazin-4-amine] | 0.01 to 100 nM
N[C@@H](COC(F)F)Cc1cc2c(NCc3ccco3)nc(Cl)nn2c1Cl [Compound 5, (R)-6-(2-amino-3-(difluoromethoxy)propyl)-2,7-dichloro-N-(furan-2-ylmethyl)pyrrolo[2,1-f][1,2,4]triazin-4-amine] | 101 to 500 nM
N[C@@H](COC(F)F)Cc1cc2c(NCc3ccco3)nc(Cl)nn2c1Br [Compound 6, (R)-6-(2-amino-3-(difluoromethoxy)propyl)-7-bromo-2-chloro-N-(furan-2-ylmethyl)pyrrolo[2,1-f][1,2,4]triazin-4-amine] | 101 to 500 nM
COC[C@H](N)Cc1cc2c(NCc3ccco3)nc(Cl)nn2c1Cl [Compound 7, (R)-6-(2-amino-3-methoxypropyl)-2,7-dichloro-N-(furan-2-ylmethyl)pyrrolo[2,1-f][1,2,4]triazin-4-amine] | 101 to 500 nM
COC[C@H](N)Cc1cc2c(NCc3ccco3)nc(Cl)nn2c1Br [Compound 8] | 101 to 500 nM
C[C@H](N)Cc1cc2c(NCc3ccco3)nc(Cl)nn2c1Cl [Compound 9] | 0.01 to 100 nM
C[C@H](N)Cc1cc2c(NCc3ccco3)nc(Cl)nn2c1Br [Compound 10] | 101 to 500 nM
[2H]C([2H])([2H])OCC(N)Cc1cc2c(NCc3ccco3)nc(Cl)nn2c1Br (centres unmarked) [Compound 11] | 101 to 500 nM
[2H]C([2H])([2H])OC[C@H](N)Cc1cc2c(NCc3ccco3)nc(Cl)nn2c1Cl [Compound 12] | 101 to 500 nM
N[C@H](Cc1cc2c(NCc3ccco3)nc(Cl)nn2c1Br)CC1CC1 [Compound 13] | 101 to 500 nM
N[C@H](Cc1cc2c(NCc3ccco3)nc(Cl)nn2c1Br)CC(F)(F)F [Compound 14] | 101 to 500 nM
N[C@@H](CCOC(F)(F)F)Cc1cc2c(NCc3ccco3)nc(Cl)nn2c1Br [Compound 15] | 101 to 500 nM
N[C@@H](CCOC(F)F)Cc1cc2c(NCc3ccco3)nc(Cl)nn2c1Br [Compound 16] | 0.01 to 100 nM
N[C@H](Cc1cc2c(NCc3ccco3)nc(Cl)nn2c1Cl)CC1CC1 [Compound 17] | 101 to 500 nM
